# Values quoted from earlier work in patent US11304951B1 (Janssen Pharmaceutica NV, priority 2020, dated 2022).
compound,measurement,value
"CCCCCCCCCCCCCCCC(=O)OC1CCCn2c1nc(C)c(CCN1CCC(c3noc4cc(F)ccc34)CC1)c2=O (racemic) [paliperidone palmitate, (±)-3-[2-[4-(6-fluoro-1,2-benzisoxazol-3-yl)-1-piperidinyl]ethyl]-6,7,8,9-tetrahydro-2-methyl-4-oxo-4H-pyrido[1,2-c]pyrimidin-9-yl hexadecanoate]",water solubility,extreme low water solubility
